{
  "source": "paper PMC7136958",
  "about": "“Targeting the pregnane X receptor using microbial metabolite mimicry” (EMBO Molecular Medicine, 2020)",
  "key": {"S. typhimurium 14038": {"test_system": "S. typhimurium 14038", "test": "Salmonella invasion (gentamicin protection assay) in Caco-2 monolayers", "type": "cell-based, Salmonella typhimurium", "settings": "for Salmonella CFU/ml: Caco-2 cells, triplicate", "procedure": "FKK compounds were tested for their ability to prevent Salmonella invasion in vitro in non‐inflamed and inflamed cell cultures. Overnight cultures of S. typhimurium 14038 were diluted to OD600 0.01 and injected into with HIOs or immersed over Caco‐2 monolayers for 1 h at 37°C. The invasive ability of Salmonella was assessed using the gentamicin protection assay (Gagnon et al, 2013). Bacterial adhesion scenarios to the Caco‐2 surface were set up as described above. Non‐adhered bacteria were removed by washing twice in PBS, followed by incubation with 1 ml gentamicin (150 μg/ml in DMEM) for 1 h at 37°C to kill the adhered extracellular bacteria. Dead bacteria were removed by washing twice in PBS, followed by incubation with 500 μl 0.1% Triton X‐100 for 15 min at 37°C to lyse the HIOs and Caco‐2, and release the intracellular (invaded) bacteria. Serial fold dilutions and plating were then employed to determine CFU/ml. We normalized to total protein using Bradford assay."}, "hPXR-LBD (PXR.1)": {"molecular_target": "T1, hPXR-LBD (PXR.1) (Homo sapiens, UniProt O75469)", "T1 construct": "made in house; host or cells: E. coli BL21-Gold", "T1 sequence (O75469 146-433 limits assumed)": "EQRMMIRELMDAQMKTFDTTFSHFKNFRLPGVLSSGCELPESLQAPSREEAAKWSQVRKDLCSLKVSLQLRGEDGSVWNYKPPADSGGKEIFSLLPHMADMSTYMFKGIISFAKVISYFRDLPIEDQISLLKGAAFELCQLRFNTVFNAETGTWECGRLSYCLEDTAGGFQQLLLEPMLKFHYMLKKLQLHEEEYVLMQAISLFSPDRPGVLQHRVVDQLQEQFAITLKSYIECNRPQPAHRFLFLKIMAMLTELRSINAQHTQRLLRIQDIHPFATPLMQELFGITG", "test": "Isothermal titration calorimetry with His-tagged hPXR-LBD", "type": "binding", "settings": "37°C", "procedure": "The cloning, expression, and purification of His‐tagged PXR‐LBD were performed as previously published (Wallace et al, 2013) with the following modifications: For protein expression, Luria–Bertani (LB) media were inoculated with a saturated culture of BL21‐Gold cells transformed with HIS‐LIC plasmid containing the PXR‐LBD construct. The mixture was allowed to shake at 37°C until the cells reached an OD600 ~ 0.6, and then, the temperature was reduced to 18°C, at which time IPTG was added (final concentration of 0.1 mM) to induce protein expression. For purification, the His‐tag was not removed, and the uncleaved protein was loaded onto the gel filtration column with buffer containing HEPES (4‐(2‐hydroxyethyl)‐1‐piperazineethanesulfonic acid) (25 mM, pH 7.5) and NaCl (150 mM).\nIsothermal titration calorimetry (ITC) was carried out using a VP‐ITC microcalorimeter from MicroCal⁄Malvern Instruments (Northampton, MA, USA). […] In all the experiments, the ligand solution was injected in 10 μl aliquots into the calorimetric cell containing PXR‐LBD (ligand‐binding domain) at a concentration of 3–6 μM. […] The experiments were carried out at 37°C. The heat evolved upon each injection of the ligands was obtained from the integral of the calorimetric signal. The heat associated with binding to PXR‐LBD in the cell was obtained by subtracting the heat of dilution from the heat of reaction."}, "468 kinases": {"test_system": "468 kinases", "test": "DiscoverX scanMAX kinase panel (KINOMEscan)", "type": "binding, human", "procedure": "Kinase Assays. The kinase inhibition assays were conducted by DiscoverX on a platform assay by Ambit BioSciences as described previously 16,17. FKK6 was screened at a single concentration of 10 μM in duplicate. The scanMAXSM assay panel measures 468 kinases\n(https://www.discoverx.com/services/drug-discovery-development-services/kinase-profiling/kinomescan/scanmax). The assays measure a compound’s ability to inhibit binding of a canonical ligand substrate, with 0% activity of control corresponding to full inhibition and 100% activity of control to no inhibition. […]\nquantitative measure of compound selectivity based on the number of kinase hits (enzymes inhibited) divided by the total number of distinct kinases tested. Three different activity cut-offs were analyzed – S(35) or % activity of control < 35; S(10) or % activity of control < 10; and S(1) or % activity of control < 1. To illustrate effect or lack of effect, an image of the entire family of kinases tested were grouped by families and S(35). The TREEspot Kinase dendrogram image was generated using TREEspot™ Software Tool and reprinted with permission from KINOME scan®, a division of DiscoveRx […]"}, "[1]": {"test_system": "ABCC2, UGT1A1, ABCB1, CYP3A4, GSTA1 mRNA", "test": "PXR target gene mRNA in human duodenal enteroids", "protocol": "Discarded duodenum tissue after surgery was obtained and used to isolate crypts. Embedded crypts in Matrigel formed 3D structures referred to as “enteroids”. […] DMSO was added to enteroids as a negative control. After incubation for 24 h, enteroids were collected in RNA‐free tube followed by breaking down Matrigel by pipetting vigorously (using 1 ml PBS). The enteroids were pelleted at 16,000 g for 3 min (4°C). RNA was extracted using miRNA isolation kit (Invitrogen; #AM1561) using the protocol provided by Invitrogen. […] PowerUp SYBR Green (Applied Biosystem, #A25742) was used for RT–PCR and performed 40 cycles using Quant Studio3 (Invitrogen, #A28132)."}, "hPXR [2]": {"molecular_target": "T2, hPXR (Homo sapiens, UniProt O75469)", "T2 sequence (O75469 111-434 limits assumed)": "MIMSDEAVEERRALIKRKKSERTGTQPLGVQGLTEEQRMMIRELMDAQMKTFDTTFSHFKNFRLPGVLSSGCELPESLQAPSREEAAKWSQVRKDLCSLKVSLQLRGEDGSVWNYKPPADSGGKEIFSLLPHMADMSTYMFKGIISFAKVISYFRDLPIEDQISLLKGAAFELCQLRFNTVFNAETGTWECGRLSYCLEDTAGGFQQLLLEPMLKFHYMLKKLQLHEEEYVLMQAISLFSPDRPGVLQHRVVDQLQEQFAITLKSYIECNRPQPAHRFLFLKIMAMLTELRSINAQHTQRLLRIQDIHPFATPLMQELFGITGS", "test": "hPXR TR-FRET competitive binding assay (LanthaScreen)", "settings": "for 520/495 TR-FRET ratio: replicate wells; for TR-FRET signal (Fig 1e): each column a repeat", "protocol": "(§1) All PXR‐binding assays were performed as two independent experiments, each with a minimum of four replicates. Final IC50 was obtained by processing the data with GraphPad Prism 6 using standard curve interpolation (sigmoidal, 4PL, variable slope)."}, "hPXR [3]": {"molecular_target": "T2, hPXR", "test": "biochemical", "protocol": "as §1"}},
  "note": "“And” between values parts separate entries of the source, which are not always exact repeats. Equal entries are not always repeated. Marks after values point to notes of the source that are not given here.",
  "data": [
    {"smiles": "C#CCC(O)(c1ccncc1)c1cc2ccccc2n1S(=O)(=O)c1ccccc1", "note": "(centres unmarked) [FKK6]", "values": [
      {"measurement": "cytokine-induced salmonella invasion", "setting": "S. typhimurium 14038; 10 and 25 μM, vs cytokines only", "result": "significantly decreased"},
      {"measurement": "Salmonella CFU/ml", "setting": "S. typhimurium 14038; compound 10µm, no cytokines, 6 hr", "result": "3008 CFU/ml and 3000 CFU/ml and 1800 CFU/ml"},
      {"measurement": "Salmonella CFU/ml", "setting": "S. typhimurium 14038; compound 10µm, no cytokines, 12 hr", "result": "1840 CFU/ml and 3520 CFU/ml and 2960 CFU/ml"},
      {"measurement": "Salmonella CFU/ml", "setting": "S. typhimurium 14038; compound 25µm, no cytokines, 6 hr", "result": "2076 CFU/ml and 2290 CFU/ml and 2980 CFU/ml"},
      {"measurement": "Salmonella CFU/ml", "setting": "S. typhimurium 14038; compound 25µm, no cytokines, 12 hr", "result": "1360 CFU/ml and 2480 CFU/ml and 2320 CFU/ml"},
      {"measurement": "Salmonella CFU/ml", "setting": "S. typhimurium 14038; cytokines + compound 10µm, 6 hr", "result": "2276 CFU/ml and 2820 CFU/ml and 1500 CFU/ml"},
      {"measurement": "Salmonella CFU/ml", "setting": "S. typhimurium 14038; cytokines + compound 25µm, 6 hr", "result": "1940 CFU/ml and 1870 CFU/ml and 1600 CFU/ml"},
      {"measurement": "Salmonella CFU/ml", "setting": "S. typhimurium 14038; cytokines + compound 25µm, 12 hr", "result": "2520 CFU/ml and 1360 CFU/ml"},
      {"measurement": "salmonella invasion, compound alone", "setting": "S. typhimurium 14038; no cytokines", "result": "No significant effect"},
      {"measurement": "ΔH (enthalpy of binding)", "setting": "hPXR-LBD (PXR.1)", "result": -3.5, "unit": "kcal/mol"},
      {"measurement": "−TΔS", "setting": "hPXR-LBD (PXR.1)", "result": -4.1, "unit": "kcal/mol"},
      {"measurement": "Kd", "setting": "hPXR-LBD (PXR.1); single-site model", "result": 2700, "unit": "nM"},
      {"measurement": "Interactions Mapped (TREEspot)", "setting": "468 kinases; 10 μM", "result": 0},
      {"measurement": "Number of Hits, S(1)", "setting": "468 kinases; 10 μM, 403 non-mutant kinases", "result": 0},
      {"measurement": "Number of Hits, S(10)", "setting": "468 kinases; 10 μM, 403 non-mutant kinases", "result": 0},
      {"measurement": "Number of Hits, S(35)", "setting": "468 kinases; 10 μM, 403 non-mutant kinases", "result": 0},
      {"measurement": "kinase inhibition (in words)", "setting": "468 kinases; panel of 468 kinases", "result": "neither of these compounds inhibited the kinases tested"},
      {"measurement": "PXR target gene induction (in words)", "setting": "[1]", "result": "significantly induced"},
      {"measurement": "ABCB1 (MDR1) mRNA fold change, Mean", "setting": "[1]; 10 μM, 24 h, n=3", "result": 3.883, "unit": "fold"},
      {"measurement": "ABCC2 mRNA fold change, Mean", "setting": "[1]; 10 μM, 24 h, n=3", "result": 4.029, "unit": "fold"},
      {"measurement": "CYP3A4 mRNA fold change, Mean", "setting": "[1]; 10 μM, 24 h, n=3", "result": 1.665, "unit": "fold"},
      {"measurement": "GSTA1 mRNA fold change, Mean", "setting": "[1]; 10 μM, 24 h, n=3", "result": 1.768, "unit": "fold"},
      {"measurement": "UGT1A1 mRNA fold change, Mean", "setting": "[1]; 10 μM, 24 h, n=3", "result": 2.472, "unit": "fold"},
      {"measurement": "520/495 TR-FRET ratio", "setting": "hPXR [2]; 0.001 uM", "result": "0.4136 and 0.4057 and 0.5035 and 0.4539"},
      {"measurement": "520/495 TR-FRET ratio", "setting": "hPXR [2]; 0.005 uM", "result": "0.6293 and 0.6196 and 0.5845 and 0.6237"},
      {"measurement": "520/495 TR-FRET ratio", "setting": "hPXR [2]; 0.01 uM", "result": "0.6566 and 0.5913 and 0.6411 and 0.6166"},
      {"measurement": "520/495 TR-FRET ratio", "setting": "hPXR [2]; 0.05 uM", "result": "0.6583 and 0.5743 and 0.6162 and 0.6466"},
      {"measurement": "520/495 TR-FRET ratio", "setting": "hPXR [2]; 0.1 uM", "result": "0.7390 and 0.6524 and 0.6459 and 0.6637"},
      {"measurement": "520/495 TR-FRET ratio", "setting": "hPXR [2]; 0.5 uM", "result": "0.5359 and 0.4958 and 0.5519 and 0.5445"},
      {"measurement": "520/495 TR-FRET ratio", "setting": "hPXR [2]; 1 uM", "result": "0.5035 and 0.4918 and 0.5332 and 0.5717"},
      {"measurement": "520/495 TR-FRET ratio", "setting": "hPXR [2]; 5 uM", "result": "0.3896 and 0.3581 and 0.3234 and 0.3736"},
      {"measurement": "520/495 TR-FRET ratio", "setting": "hPXR [2]; 10 uM", "result": "0.2832 and 0.3381 and 0.2857 and 0.3170"},
      {"measurement": "520/495 TR-FRET ratio", "setting": "hPXR [2]; 25 uM", "result": "0.3206 and 0.2975 and 0.3225 and 0.3589"},
      {"measurement": "TR-FRET signal (Fig 1e)", "setting": "hPXR [2]; Drug Conc 0,25 uM", "result": "0.6324 and 0.6211 and 0.6238 and 0.5836"},
      {"measurement": "TR-FRET signal (Fig 1e)", "setting": "hPXR [2]; Drug Conc 1 nM", "result": "0.4136* and 0.4057* and 0.5035* and 0.4539*"},
      {"measurement": "TR-FRET signal (Fig 1e)", "setting": "hPXR [2]; Drug Conc 5 nM", "result": "0.6293 and 0.6196 and 0.5845 and 0.6237"},
      {"measurement": "TR-FRET signal (Fig 1e)", "setting": "hPXR [2]; Drug Conc 10 nM", "result": "0.6566 and 0.5913 and 0.6411 and 0.6166"},
      {"measurement": "TR-FRET signal (Fig 1e)", "setting": "hPXR [2]; Drug Conc 50 nM", "result": "0.6583 and 0.5743 and 0.6162 and 0.6466"},
      {"measurement": "TR-FRET signal (Fig 1e)", "setting": "hPXR [2]; Drug Conc 10 uM", "result": "0.2832 and 0.3381 and 0.2857 and 0.317"},
      {"measurement": "TR-FRET signal (Fig 1e)", "setting": "hPXR [2]; Drug Conc 25 uM", "result": "0.3206 and 0.2975 and 0.3225 and 0.3589"},
      {"measurement": "IC50", "setting": "hPXR [3]", "result": "1560 nM and ~1560 nM"}
    ]}
  ]
}
